Assay results as given in paper PMC6272185 (Molecules, 2015).
Values after ≈ are worked out from the molar mass of the structure shown. Like-named read-outs stand apart in the source and are kept apart here.

Columns and labels:
[1] = tested on: TNF-α production by LPS-stimulated RAW 264.7 macrophages; test: Inhibition of TNF-α production by LPS-stimulated macrophages (ELISA); type: cell-based, murine; conditions: for IC50: Mus musculus, RAW264.7, LPS (1 µg/mL)-stimulated RAW 264.7, 24 h, mean ± SD, n = 3, read-out: IC50 TNF-α
[2] = Macrophage cytotoxicity, LDH release assay; type: cell-based, murine; conditions: mouse, RAW 264.7 macrophages stimulated with LPS; LPS-stimulated RAW 264.7, LDH release; mean ± SD, n = 3
Protocol: Cytotoxic effects of chalcone samples on RAW 264.7 cell viability in cultures stimulated with LPS were determined using the LDH (lactate dehydrogenase) release assay as previously described [58]. Cytoplasmic enzyme LDH release into cell culture supernatants was detected using a commercial LDH kit (Doles, GO, Brazil). Cell death was expressed as percentage of LDH release, which was calculated using the following formula: percentage of LDH release = 100 × (test LDH release − spontaneous release)/(maximum release − spontaneous release). The maximum release was determined following dissolution of cell monolayers using 1% (vol/vol) Triton X-100. The spontaneous release was determined in supernatants from cultures incubated in the presence of LPS and DMSO, used as a solvent for chalcone samples.

M. bovis BCG = test: microbe, parasite or virus in culture; type: cell-based, Mycobacterium bovis BCG; conditions: for MIC50 / MIC90: Mycobacterium tuberculosis variant bovis BCG, BCG, 168 h; for MIC50: read-out: MIC50 M. bovis BCG; for MIC90: read-out: MIC90 M. bovis BCG
[3] = tested on: IL-1β production by LPS-stimulated RAW 264.7 macrophages; test: Inhibition of IL-1β production by LPS-stimulated macrophages (ELISA); type: cell-based, murine; conditions: for inhibition of IL-1β: LPS-stimulated RAW 264.7; for IC50: Mus musculus, RAW264.7, 24 h, read-out: IC50 IL-1β
Protocol: (§1) Murine RAW 264.7 macrophage cell line (American Type Culture Collection, Manassas, VA, USA), was cultured in Dulbecco’s modified Eagle’s medium (DMEM-F12) supplemented with 10% Fetal Bovine Serum (FBS) and gentamicin (50 µg/mL) in 5% CO2 atmosphere at 37 °C. For experiments, the cells were seeded in 96-well plates (1 × 10^5 cells/well) and incubated for 24 h at 37 °C. For macrophage stimulation, the cell cultures were treated with LPS (1 µg/mL) and incubated for additional 24 h in the presence or absence of the chalcone samples (samples 1–41) that were used at concentrations of 100, 20, 4 and 0.8 µg/mL. In some experiments, a nitric oxide (NO) inhibitor, L-NMMA (20 μg/mL), was used as a positive control of NO inhibition, and a non-steroidal anti-inflammatory drug indomethacin, known to inhibit production of prostaglandins, was used as a positive control of PGE2 inhibition.
(§2) The frozen culture supernatants samples were thawed and immediately analyzed using commercially available enzyme-linked immunosorbent assay (ELISA) kits to measure TNF-α, IL-1β (BD Biosciences) and PGE2 (R&D Systems, Minneapolis, MN, USA), according to the manufacturer’s instructions. Standard curves for each mediator were generated using reference cytokine concentrations supplied by the manufacturer. Nitric oxide (NO) generation was assessed by the Griess method to measure nitrites, which are stable breakdown NO products.

[4] = tested on: PGE2 production by LPS-stimulated RAW 264.7 macrophages; test: Inhibition of PGE2 production by LPS-stimulated macrophages (ELISA); type: cell-based, murine; conditions: Mus musculus, RAW264.7, 24 h, read-out: IC50 PGE2
Protocol: as §1, §2

[5] = tested on: iNOS expression in RAW 264.7 macrophages; test: iNOS expression by western blot in LPS-stimulated macrophages; type: cell-based, murine; conditions: 20 µg/mL, LPS 1 µg/mL, 24 h
Protocol: (§3) RAW 264.7 macrophages were plated in Petri dishes (2 × 10^7 cells·mL^−1) and incubated for 24 h at 37 °C in 5% CO2 atmosphere. […] The resulted cellular monolayers were washed with PBS 1×, scraped and resuspended in PBS 1×, transferred and centrifuged to obtain cell pellets. The cells were lysed in buffer (10% SDS, 20% glycerol, 5% 2-mercaptoethanol, 2% bromophenol blue and 1 M Tris HCl, pH 6.8, containing protease inhibitors). Protein concentrations were estimated by Bradford method. For western blot analysis, cellular extract samples (60 µg) were submitted to 10% SDS–polyacrylamide gel electrophoresis under […] conditions and transferred to nitrocellulose membranes (Amersham Pharmacia Biotech, Uppsala, Sweden). After blocking with PBS-T (0.5% Tween-20) containing 2.5% (w/v) bovine serum albumin, the membranes were incubated with antibodies against iNOS (1:1000) and COX-2 (1:500) for 1 h at room temperature. After incubation period, the membranes were washed followed by treatment with horseradish peroxidase-conjugated secondary antibody. The resulting membranes were developed using diaminobenzidine/H2O2 as a substrate for peroxidase. In all electrophoresis experiments, a protein standard ladder (Full Range Rainbow-GE Healthcare, Piscataway, NJ, USA) was used to estimate proteins molecular size. Protein bands densitometric analysis was performed using ImageJ software for Windows (NIH, Bethesda, MD, USA). The value for stimulated condition (LPS- treated cells) was set as 1 and other conditions were recalculated correspondingly to allow ratio comparisons.

[6] = tested on: COX-2 expression in RAW 264.7 macrophages; test: COX-2 expression by western blot in LPS-stimulated macrophages; type: cell-based, murine; conditions: 20 µg/mL, LPS 1 µg/mL, 24 h
Protocol: as §3

M. tuberculosis H37Rv = test: microbe, parasite or virus in culture; type: cell-based, Mycobacterium tuberculosis; conditions: for MIC90 / MIC50: Mycobacterium tuberculosis
M. tuberculosis M299 = test: microbe, parasite or virus in culture; type: cell-based, Mycobacterium tuberculosis; conditions: Mycobacterium tuberculosis, M299, 120 h
[7] = tested on: M. tuberculosis strain H37Rv in RAW 264.7 macrophages; test: Intracellular growth of M. tuberculosis H37Rv in infected macrophages (CFU); type: cell-based, Mycobacterium tuberculosis; conditions: infected RAW 264.7, MOI 1:1, 4 days, Figure 3C; for MIC50: Mycobacterium tuberculosis, H37RV, 96 h
Protocol: (§4) RAW 264.7 macrophages were plated (1 × 10^5 cells/well) in antibiotic-free DMEM-F12 medium supplemented with 10% fetal bovine serum and incubated for 24 h. Prior to infection, mycobacterial suspensions were sonicated for 1 minute to disperse clumps and optical densities were adjusted to 0.1. The macrophage cultures were infected at a MOI of 1:1 (macrophage: bacterium). Phagocytosis was allowed to progress for 3 h. After 3 h, extracellular mycobacteria were removed by washing with PBS 1X and the infected cell monolayers were treated for 4 days with chalcone samples or rifampicin. Macrophage viability was monitored by LDH assay and was over 80% in all experiments. On day 4 after infection, cells were lysed cells with 1% saponin to release intracellular bacteria. Lysate aliquots were diluted 10-fold in PBS, plated in triplicates on 7H10 agar plates and incubated at 37 °C. After 21 days, total CFU were determined.

[8] = tested on: RAW 264.7 macrophages infected with M. tuberculosis H37Rv; test: Toxicity for infected macrophages, LDH assay; type: cell-based, murine; conditions: Mus musculus, RAW264.7, 96 h; infected RAW 264.7, 4 days treatment; Figure 3D
Protocol: Cytotoxic effects of chalcone samples on RAW 264.7 cell viability in cultures stimulated with LPS were determined using the LDH (lactate dehydrogenase) release assay as previously described. Cytoplasmic enzyme LDH release into cell culture supernatants was detected using a commercial LDH kit (Doles, GO, Brazil). Cell death was expressed as percentage of LDH release, which was calculated using the following formula: percentage of LDH release = 100 × (test LDH release − spontaneous release)/(maximum release − spontaneous release). The maximum release was determined following dissolution of cell monolayers using 1% (vol/vol) Triton X-100. The spontaneous release was determined in supernatants from cultures incubated in the presence of LPS and DMSO, used as a solvent for chalcone samples.
as §4

[9] = tested on: NO production by LPS-stimulated RAW 264.7 macrophages; test: Inhibition of NO production by LPS-stimulated macrophages (Griess); type: cell-based, murine; conditions: Mus musculus, RAW264.7, 24 h, LPS (1 µg/mL)-stimulated RAW 264.7, 24 h; mean ± SD, n = 3; read-out: IC50 NO
[10] = H37RV, 120 h, read-out: MIC50 M. tuberculosis H37Rv
[11] = Table 5, same values as M. tuberculosis H37Rv in Table 3, read-out: MIC50

| SMILES | IC50 [1] | IC50 [2] | MIC50 (M. bovis BCG) | MIC90 (M. bovis BCG) | inhibition of IL-1β [3] | IC50 [3] | IC50 [4] | inhibition of iNOS expression [5] | abrogation of COX-2 expression [6] | MIC90 (M. tuberculosis H37Rv; H37RV, 120 h) | MIC50 (M. tuberculosis H37Rv; [10]) | MIC50 (M. tuberculosis H37Rv; [11]) | MIC50 (M. tuberculosis M299) | MIC90 (M. tuberculosis M299) | MIC50 [7] | IC50 [8] | further results |
| --- | --- | --- | --- | --- | --- | --- | --- | --- | --- | --- | --- | --- | --- | --- | --- | --- | --- |
| O=C(/C=C/c1ccc2c(c1)OCO2)c1ccccc1 [Chalcone 5] | 48.1 ± 7.6 µM | > 396 µM | 14.5 ± 6.1 µM (≈ 3.66 µg/mL) | 75.3 ± 8.4 µM (≈ 19 µg/mL) | potent inhibitors | 57.9 ± 4.9 µM | 23.1 ± 2.4 µM | almost completely inhibit | most potent in abrogation | 303 ± 5.4 µM (≈ 76.5 µg/mL) | 12.7 ± 1.9 µM (≈ 3.2 µg/mL) | 12.7 ± 1.9 µM (≈ 3.2 µg/mL) | 11.7 ± 3.4 µM (≈ 2.95 µg/mL) | 289.6 ± 0.7 µM (≈ 73.1 µg/mL) | 3.8 ± 0.1 µM (≈ 0.959 µg/mL) | > 396 µM | inhibition of TNF-α ([1]; LPS-stimulated RAW 264.7): strongly inhibit; MIC90 M. bovis BCG (M. bovis BCG; culture, 7 days, MTT): 75.3 ± 8.4 µM (≈ 19 µg/mL); MIC90 M. tuberculosis H37Rv (M. tuberculosis H37Rv): 303.2 ± 5.4 µM (≈ 76.5 µg/mL); MIC50 intracellular M. tuberculosis H37Rv [7]: 3.8 ± 0.1 µM (≈ 0.959 µg/mL) |
| O=C(/C=C/c1ccc(Cl)cc1)c1ccccc1 [Chalcone 3] | 60.5 ± 4.7 µM | 400 ± 4.9 µM | 20.7 ± 6.4 µM (≈ 5.02 µg/mL) | 170 ± 5.4 µM (≈ 41.2 µg/mL) | potent inhibitors | 46.6 ± 4.6 µM | 19.9 ± 2.6 µM | almost completely inhibit | most potent in abrogation | 372.7 ± 3.6 µM (≈ 90.5 µg/mL) | 13 ± 3.3 µM (≈ 3.16 µg/mL) | 13 ± 3.3 µM (≈ 3.16 µg/mL) | 18.4 ± 3.9 µM (≈ 4.46 µg/mL) | 373.9 ± 1.4 µM (≈ 90.7 µg/mL) | 12.3 ± 1 µM (≈ 2.99 µg/mL) | 307 ± 5.1 µM | IC50 [9]: 31.9 ± 4.6 µM |
